Laboratory results reported in US20220226357A1, “METHODS FOR TREATING NEURODEGENERATIVE DISORDERS” (THOMAS JEFFERSON UNIVERSITY, priority 2019, published 2022).
Entries after “also recorded” stand apart in the source; their conditions may differ. Marks after values point to notes of the source that are not given here.

Experiments:
Type in all cases: in vivo
[1] = test system: AAV-A53T α-synuclein rat model; assay: Striatal dopamine and metabolite levels (UHPLC, electrochemical detection); conditions: for DA / DOPAC: striatum
Experimental: Institutional Animal Care and Use Committee and conducted in accordance with the National Institutes of Health Guide for the Care and Use of Laboratory Animals. Adult male Sprague-Dawley rats (Envigo), 250 to 300 g at the time of surgery, were housed three per cage with ad libitum access to food and water during a 12-hour light/dark cycle. All surgeries were performed under general anesthesia using a mixture of ketamine (100 mg/kg, i.p.) and xylazine (10 mg/kg, i.p.). Once animals were anesthetized, the head was shaved and surgically prepped with Betadine solution and alcohol before being placed in a Kopf stereotaxic frame with the incisor bar set at approximately 3.5 mm below horizontal zero to achieve a flat skull position. The skin on the top of the skull was cut along the midline and retracted. […] Following a 5 minute wait period after completion of the injection, the needle was slowly withdrawn, the skin wound was closed, and post-surgery analgesia (meloxicam 1 mg/kg) was administered. Some rats were randomly assigned to receive daily GM1 ganglioside (porcine brain derived GM1, 30 mg/kg, i.p., Qilu Pharmaceutical Co., Ltd.) or similar volume saline injections beginning 24 hours after AAV-A53T-synuclein surgery and lasting for 6 weeks (early start group). Other animals were randomly assigned to receive daily GM1 ganglioside (porcine brain derived GM1, 30 mg/kg, i.p., Qilu Pharmaceutical Co.) or similar volume saline injections beginning 3 weeks after AAV-A53T-synuclein surgery and lasting for 5 weeks (delayed start group). […] At the conclusion of the study, animals were euthanized, fresh brains were rapidly removed, and two to three striatal samples from both sides were dissected and immediately frozen for later analyses. The remainder of the brain (including the striatum beginning at the level of the decussation of the anterior commissure) was submersion fixed in 4% paraformaldehyde.
Striatal samples were sonicated cold in 0.4 M perchloric acid for 10 seconds and centrifuged at 13,000 rpm for 10 min at 4° C. The supernatant was removed and was diluted 1:4 with Milli-Q ultrapure water (resistivity 18.2 MΩ·cm) containing internal standard (isoproterenol, 4 ng). The diluted samples were centrifuged again at 13,000 rpm for 5 min at 4° C. Samples were kept on ice prior to loading into the refrigerated (4° C.) autosampler integrated with the HPLC system. An ALEXYS UHPLC system (Antec Scientific) with electrochemical detection (Decade Elite electrochemical detector with a glassy carbon electrode) was used for the analyses. […] The mobile phase (pH 3.0) consisted of 100 mM phosphoric acid, 100 mM citric acid, 0.1 mM EDTA.Na2, 600 mg/L octanesulfonic acid sodium salt, and 8% acetonitrile. Pump flow rate was 50 μl/min. The analytes were detected at an oxidation potential of 600 mV against a reference electrode at 0 mV. Data were acquired and processed using Clarity software (v7.4.1) (DataApex). Peak heights were compared against internal standard curves to determine the concentrations of DA and metabolites in each sample.

[2] = test system: AAV-A53T α-synuclein rat model; assay: Immunohistochemistry of Ser129-phosphorylated α-synuclein in the SN; conditions: delayed start GM1; 8 weeks after AAV-A53T; not quantified
[3] = test system: AAV-A53T α-synuclein rat model; assay: Insoluble pSer129 α-Syn immunofluorescence in SN after proteinase K; conditions: GM1 30 mg/kg/day i.p. for 2 wks, starting 24 hrs after AAV-A53T
From the text: However, GM1 administration may affect α-Syn phosphorylation and aggregation in vivo. Some studies have reported that in vitro, GM1 and α-Syn interact, resulting in an absence of fibril formation and an increase in helical folding propensity, resulting in GM1-mediated protection against aggregation. […] It was proposed herein that a mechanism that underlies the ability of GM1 to reduce α-Syn-related neurotoxicity is that GM1 administration reduces α-Syn phosphorylation and thus aggregation, and toxicity, in vivo. […] Beginning 24 hours after AAV administration, some animals received daily i.p. injections of saline and others received daily i.p. injections of GM1 (30 mg/kg). Animals were euthanized 2 weeks following initiation of saline or GM1 administration. Brains were subsequently sectioned and SN sections were treated with proteinase K and then processed for pSer129 α-Syn immunofluorescence.

[4] = test system: AAV-A53T α-synuclein rat model; assay: Beclin-1 protein expression in the SN; conditions: 2 wks after AAV-A53T vector injection; N=8/grp
From the text: The pathological phenotype of various storage disorders comprises increased α-Syn accumulation and aggregation and this increased α-Syn accumulation and aggregation has been linked to lysosomal dyfunction. Also, DA neuron degeneration induced by excess α-Syn in AAV-A53T rats is linked to a progressive decline in autophagic activity and in markers of lysosome function.

[5] = delayed start GM1, 8 weeks after AAV-A53T
[6] = early start GM1, 6 weeks after AAV-A53T
[7] = AAV-A53T/Early GM1, injected side
[8] = AAV-A53T/Early GM1, non-injected side

GM1 ganglioside was tested, and the “DOPAC levels on the injected side, % of non-injected side” value [1, 5] was 82.0±8.4%, the “DOPAC/DA ratio on the injected side, % of contralateral side” value [1, 5] was 150.0±10.9% and the “striatal DA levels on the injected side, % of contralateral side” value [1, 5] was 55.0±3.9%. For the same substance, the “DOPAC/DA ratio on the injected side, % of contralateral side” value [1, 6] was 112.3±9.5%, the “striatal DA levels on the injected side, % of contralateral side” value [1, 6] was 64.0±3.5% and the DA ([1]; AAV-A53T/Delayed GM1, injected side) was 5.87 ± 0.47^b μg/g wet tissue. For the same substance, the DOPAC ([1]; AAV-A53T/Delayed GM1, injected side, two outlier samples removed) was 0.93 ± 0.12^ μg/g wet tissue, the DA ([1]; AAV-A53T/Delayed GM1, non-injected side) was 10.73 ± 0.54 μg/g wet tissue and the DOPAC ([1]; AAV-A53T/Delayed GM1, non-injected side, two outlier samples removed) was 1.18 ± 0.10^ μg/g wet tissue. For the same substance, the DA [1, 7] was 7.29 ± 0.45^a μg/g wet tissue, the DOPAC [1, 7] was 0.85 ± 0.09 μg/g wet tissue and the DA [1, 8] was 11.43 ± 0.32 μg/g wet tissue. For the same substance, the DOPAC [1, 8] was 1.33 ± 0.10 μg/g wet tissue, the “Ser129-phosphorylated α-synuclein staining in the SN, GM1 vs saline” value [2] was “less intense cytoplasmic Ser129-phosphorylated α-synuclein staining and fewer/smaller nuclear aggregates; also recorded: more Ser129 phosphorylated α-synuclein staining in saline-treated animals compared to GM1-treated animals” and the “insoluble pSer129 α-Syn-positive cells and pSer129 α-Syn per cell in the SN, GM1 vs saline” value [3] was “significantly fewer pSer129 α-Syn-positive cells and less pSer129 α-Syn per cell; also recorded: fewer SN neurons expressing insoluble pSer129 and decreased pSer129 expression per neuron”. For the same substance, the “SN Beclin-1 protein expression, GM1 vs saline” value [4] was “reversed increased SN Beclin-1 levels; also recorded: significantly increased in saline-treated vs. GM1-treated animals”.
